US10414811B2, “Protease-resistant lipidated GLP-1 analogs” (MEDIMMUNE LIMITED, priority 2015, dated 2019)
Like-named read-outs stand apart in the source and are kept apart here. Numbered stars: 1 amine (or outer) side, 2 acyl side, 3 side chain; on linkers, the order of the positions; unused ones are H or OH. Square brackets hold non-standard residues; d marks the D form. Side chains are listed from the residue outwards. Peptide text beside a SMILES is read from it. * marks the point of attachment. γGlu = O=C(O)[C@H](CCC(=O)[*:2])N[*:1]; Palmitoyl = CCCCCCCCCCCCCCCC(=O)*; αMeF = C[C@](N)(Cc1ccccc1)C(=O)O; αMeK = C[C@](N)(CCCCN)C(=O)O; αMeS = C[C@](N)(CO)C(=O)O; Aib = CC(C)(N)C(=O)O

Experiments:
Format in all cases: cell-based
[1] = target: T1, human glucose-dependent insulinotropic peptide receptor (GIPR) (Homo sapiens, UniProt P48546); assay: cAMP assay, human GIPR cells; details: cAMP assay
T1 construct: expressed in transfected cells
T1 sequence (P48546 22-466): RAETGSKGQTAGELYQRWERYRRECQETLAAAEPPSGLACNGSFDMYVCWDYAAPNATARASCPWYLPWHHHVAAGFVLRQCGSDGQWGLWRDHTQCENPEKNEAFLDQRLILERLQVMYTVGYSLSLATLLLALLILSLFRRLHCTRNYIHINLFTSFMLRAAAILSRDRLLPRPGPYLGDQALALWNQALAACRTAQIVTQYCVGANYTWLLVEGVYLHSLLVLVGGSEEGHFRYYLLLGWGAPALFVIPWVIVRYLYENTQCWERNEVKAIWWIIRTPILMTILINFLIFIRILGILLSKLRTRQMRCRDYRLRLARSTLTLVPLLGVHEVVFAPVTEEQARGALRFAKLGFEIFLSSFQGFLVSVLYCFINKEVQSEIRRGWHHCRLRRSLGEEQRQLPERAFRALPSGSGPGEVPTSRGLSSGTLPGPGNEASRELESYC
How it was run: (§1)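 Peptide-stimulated cAMP measured by two-step HTRF after a 30 min room-temperature incubation with receptor-expressing cells (hGLP-1R, hGIPR at 1×10^5 cells/ml; hGCGR at 2×10^5 cells/ml). Duplicate dilutions; EC50 from 4-parameter logistic fit of % Delta F.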

[2] = target: T2, human GLP-1 receptor (GLP-1R) (Homo sapiens, UniProt P43220); assay: cAMP assay, human GLP-1R cells
T2 construct: expressed in transfected cells
T2 sequence (P43220 24-463): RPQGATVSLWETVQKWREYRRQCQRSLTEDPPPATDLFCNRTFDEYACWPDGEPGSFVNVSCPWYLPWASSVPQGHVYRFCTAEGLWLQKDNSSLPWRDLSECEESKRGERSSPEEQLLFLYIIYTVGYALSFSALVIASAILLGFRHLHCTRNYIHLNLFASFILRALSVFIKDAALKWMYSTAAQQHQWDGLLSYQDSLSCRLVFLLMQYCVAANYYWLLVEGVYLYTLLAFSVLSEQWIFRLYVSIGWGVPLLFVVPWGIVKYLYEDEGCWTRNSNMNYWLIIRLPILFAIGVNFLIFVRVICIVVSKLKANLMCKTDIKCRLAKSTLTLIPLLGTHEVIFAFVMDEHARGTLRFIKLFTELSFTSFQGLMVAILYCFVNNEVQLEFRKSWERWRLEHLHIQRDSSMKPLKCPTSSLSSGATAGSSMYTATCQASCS
How it was run: as §1

GLP-1R (INS1e assay) = target: T3, GLP-1R (INS1e assay) (Rattus norvegicus, UniProt P32301); assay: INS1e assay, cAMP activity at GLP-1R; details: mono-lipidated peptides
T3 construct: endogenous in cells; host or cells: INS-1E cells
T3 sequence (P32301 22-463): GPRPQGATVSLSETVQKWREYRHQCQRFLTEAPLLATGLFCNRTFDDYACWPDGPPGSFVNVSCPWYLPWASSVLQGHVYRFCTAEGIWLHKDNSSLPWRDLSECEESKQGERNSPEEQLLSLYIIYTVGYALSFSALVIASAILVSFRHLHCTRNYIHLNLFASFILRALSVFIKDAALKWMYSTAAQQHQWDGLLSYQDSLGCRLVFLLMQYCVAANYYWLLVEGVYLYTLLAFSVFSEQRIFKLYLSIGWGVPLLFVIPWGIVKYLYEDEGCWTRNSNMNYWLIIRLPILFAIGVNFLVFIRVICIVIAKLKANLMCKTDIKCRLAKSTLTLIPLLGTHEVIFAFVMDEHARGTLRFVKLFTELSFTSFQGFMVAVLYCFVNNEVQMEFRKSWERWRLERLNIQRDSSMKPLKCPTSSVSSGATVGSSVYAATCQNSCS
How it was run: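 It pairs cAMP-d2 acceptor with anti-cAMP cryptate donor, both prepared 1/20 in conjugate/lysis buffer, applied as a two-step protocol.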

[3] = target: T4, human glucagon receptor (GCGR) (Homo sapiens, UniProt P47871); assay: cAMP assay, human GCGR cells; details: cAMP assay
T4 construct: expressed in transfected cells
T4 sequence (P47871 26-477): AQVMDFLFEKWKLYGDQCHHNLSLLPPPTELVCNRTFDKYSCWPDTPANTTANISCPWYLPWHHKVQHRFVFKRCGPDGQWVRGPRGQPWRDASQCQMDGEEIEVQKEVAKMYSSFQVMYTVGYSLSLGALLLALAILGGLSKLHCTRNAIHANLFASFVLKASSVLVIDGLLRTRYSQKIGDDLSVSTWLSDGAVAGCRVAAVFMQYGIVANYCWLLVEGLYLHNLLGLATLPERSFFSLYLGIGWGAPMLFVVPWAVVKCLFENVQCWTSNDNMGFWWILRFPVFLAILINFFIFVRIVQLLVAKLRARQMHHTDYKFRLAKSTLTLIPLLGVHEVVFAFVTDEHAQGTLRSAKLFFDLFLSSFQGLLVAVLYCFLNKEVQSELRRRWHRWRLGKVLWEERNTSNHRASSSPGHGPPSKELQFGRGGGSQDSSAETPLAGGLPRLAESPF
How it was run: as §1

[4] = first determination (n1), read-out: Primary assay EC50 GIP-R (n1)
[5] = second determination (n2), read-out: Primary assay EC50 GIP-R (n2)
[6] = cAMP assay, first determination (n1), read-out: Primary assay EC50 GLP-1R n1
[7] = mean of n1 and n2, read-out: INS1e assay EC50 Mean pM GLP-1R
[8] = replicate n1, read-out: INS1e assay EC50 GLP-1R n1
[9] = replicate n2, read-out: INS1e assay EC50 GLP-1R n2
[10] = first determination (n1), read-out: Primary assay EC50 Gluc-R (n1)
[11] = second determination (n2), read-out: Primary assay EC50 Gluc-R (n2)
[12] = cAMP assay, second determination (n2), read-out: Primary assay EC50 GLP-1R n2
[13] = mean of n1 and n2, read-out: Mean pM GLP-1R

Row | SMILES | EC50 [1, 4] [nM] | EC50 [1, 5] [nM] | EC50 [2, 6] [pM] | EC50 (GLP-1R (INS1e assay); [7]) [pM] | EC50 (GLP-1R (INS1e assay); [8]) [pM] | EC50 (GLP-1R (INS1e assay); [9]) [pM] | EC50 [3, 10] [nM] | EC50 [3, 11] [nM] | EC50 [2, 12] [pM] | EC50 [2, 13] [pM]
1 | CCCCCCCCCCCCCCCC(=O)N[C@@H](CCC(=O)NCCCC[C@H](NC(=O)[C@](C)(Cc1ccccc1)NC(=O)[C@H](C)NC(=O)[C@@H](NC(=O)[C@](C)(Cc1ccccc1)NC(=O)[C@H](CCC(=O)O)NC(=O)[C@](C)(CCCCN)NC(=O)[C@H](C)NC(=O)[C@H](C)NC(=O)[C@H](CCC(=O)O)NC(=O)CNC(=O)[C@H](CCC(=O)O)NC(=O)[C@H](CC(C)C)NC(=O)[C@](C)(Cc1ccccc1)NC(=O)[C@H](CO)NC(=O)[C@](C)(CO)NC(=O)[C@@H](NC(=O)[C@H](CC(=O)O)NC(=O)[C@H](CO)NC(=O)[C@@H](NC(=O)[C@](C)(Cc1ccccc1)NC(=O)[C@H](CO)NC(=O)CNC(=O)[C@H](CCC(=O)O)NC(=O)C(C)(C)NC(=O)[C@@H](N)Cc1c[nH]cn1)[C@@H](C)O)C(C)C)[C@@H](C)CC)C(=O)N[C@H](C(=O)N[C@@](C)(CCCCN)C(=O)NCC(=O)NCC(N)=O)C(C)C)C(=O)O [compound 74] (H-H[Aib]EGS[αMeF]TSDV[αMeS]S[αMeF]LEGEAA[αMeK]E[αMeF]IA[αMeF]K([γGlu-Palmitoyl])V[αMeK]GG-NH2) | ≥ 28 | ≥ 28 | 2.3 | 102 | 77.4 | 127 | ≥ 28 | ≥ 28 |  | 
2 | CCCCCCCCCCCCCCCC(=O)N[C@@H](CCC(=O)NCCCC[C@H](NC(=O)[C@H](C)NC(=O)[C@@H](NC(=O)[C@](C)(Cc1ccccc1)NC(=O)[C@H](CCC(=O)O)NC(=O)[C@](C)(CCCCN)NC(=O)[C@H](C)NC(=O)[C@H](C)NC(=O)[C@H](CCC(=O)O)NC(=O)CNC(=O)[C@H](CCC(=O)O)NC(=O)[C@H](CC(C)C)NC(=O)[C@](C)(Cc1ccccc1)NC(=O)[C@H](CO)NC(=O)[C@](C)(CO)NC(=O)[C@@H](NC(=O)[C@H](CC(=O)O)NC(=O)[C@H](CO)NC(=O)[C@@H](NC(=O)[C@](C)(Cc1ccccc1)NC(=O)[C@H](CO)NC(=O)CNC(=O)[C@H](CCC(=O)O)NC(=O)C(C)(C)NC(=O)[C@@H](N)Cc1c[nH]cn1)[C@@H](C)O)C(C)C)[C@@H](C)CC)C(=O)N[C@H](C(=O)N[C@H](C(=O)N[C@@](C)(CCCCN)C(=O)NCC(=O)NCC(N)=O)C(C)C)C(C)C)C(=O)O [compound 75] | ≥ 28 | ≥ 28 | 2 | 56 | 49.7 | 63 | ≥ 28 | ≥ 28 | 1.4 | 1.7
3 | CCCCCCCCCCCCCCCC(=O)N[C@@H](CCC(=O)NCCCC[C@H](NC(=O)[C@@H](NC(=O)[C@](C)(Cc1ccccc1)NC(=O)[C@H](CCC(=O)O)NC(=O)[C@](C)(CCCCN)NC(=O)[C@H](C)NC(=O)[C@H](C)NC(=O)[C@H](CCC(=O)O)NC(=O)CNC(=O)[C@H](CCC(=O)O)NC(=O)[C@H](CC(C)C)NC(=O)[C@](C)(Cc1ccccc1)NC(=O)[C@H](CO)NC(=O)[C@](C)(CO)NC(=O)[C@@H](NC(=O)[C@H](CC(=O)O)NC(=O)[C@H](CO)NC(=O)[C@@H](NC(=O)[C@](C)(Cc1ccccc1)NC(=O)[C@H](CO)NC(=O)CNC(=O)[C@H](CCC(=O)O)NC(=O)C(C)(C)NC(=O)[C@@H](N)Cc1c[nH]cn1)[C@@H](C)O)C(C)C)[C@@H](C)CC)C(=O)N[C@@](C)(Cc1ccccc1)C(=O)N[C@H](C(=O)N[C@H](C(=O)N[C@@](C)(CCCCN)C(=O)NCC(=O)NCC(N)=O)C(C)C)C(C)C)C(=O)O [compound 76] (H-H[Aib]EGS[αMeF]TSDV[αMeS]S[αMeF]LEGEAA[αMeK]E[αMeF]IK([γGlu-Palmitoyl])[αMeF]VV[αMeK]GG-NH2; N-terminus assumed) | ≥ 27 | ≥ 27 | 8.4 | 429 | 326 | 531 | ≥ 27 | ≥ 27 | 6 | 7.2
4 | CCCCCCCCCCCCCCCC(=O)N[C@@H](CCC(=O)NCCCC[C@H](NC(=O)[C@](C)(CCCCN)NC(=O)[C@H](C)NC(=O)[C@H](C)NC(=O)[C@H](CCC(=O)O)NC(=O)CNC(=O)[C@H](CCC(=O)O)NC(=O)[C@H](CC(C)C)NC(=O)[C@](C)(Cc1ccccc1)NC(=O)[C@H](CO)NC(=O)[C@](C)(CO)NC(=O)[C@@H](NC(=O)[C@H](CC(=O)O)NC(=O)[C@H](CO)NC(=O)[C@@H](NC(=O)[C@](C)(Cc1ccccc1)NC(=O)[C@H](CO)NC(=O)CNC(=O)[C@H](CCC(=O)O)NC(=O)C(C)(C)NC(=O)[C@@H](N)Cc1c[nH]cn1)[C@@H](C)O)C(C)C)C(=O)N[C@@](C)(Cc1ccccc1)C(=O)N[C@H](C(=O)N[C@@H](C)C(=O)N[C@@](C)(Cc1ccccc1)C(=O)N[C@H](C(=O)N[C@H](C(=O)N[C@@](C)(CCCCN)C(=O)NCC(=O)NCC(N)=O)C(C)C)C(C)C)[C@@H](C)CC)C(=O)O [compound 79] (H-H[Aib]EGS[αMeF]TSDV[αMeS]S[αMeF]LEGEAA[αMeK]K([γGlu-Palmitoyl])[αMeF]IA[αMeF]VV[αMeK]GG-NH2) | ≥ 28 | ≥ 28 | 3.9 | 408 | 289 | 527 | ≥ 28 | ≥ 28 | 2.3 | 3.1
5 | CCCCCCCCCCCCCCCC(=O)N[C@@H](CCC(=O)NCCCC[C@H](NC(=O)[C@H](C)NC(=O)[C@H](C)NC(=O)[C@H](CCC(=O)O)NC(=O)CNC(=O)[C@H](CCC(=O)O)NC(=O)[C@H](CC(C)C)NC(=O)[C@](C)(Cc1ccccc1)NC(=O)[C@H](CO)NC(=O)[C@](C)(CO)NC(=O)[C@@H](NC(=O)[C@H](CC(=O)O)NC(=O)[C@H](CO)NC(=O)[C@@H](NC(=O)[C@](C)(Cc1ccccc1)NC(=O)[C@H](CO)NC(=O)CNC(=O)[C@H](CCC(=O)O)NC(=O)C(C)(C)NC(=O)[C@@H](N)Cc1c[nH]cn1)[C@@H](C)O)C(C)C)C(=O)N[C@@H](CCC(=O)O)C(=O)N[C@@](C)(Cc1ccccc1)C(=O)N[C@H](C(=O)N[C@@H](C)C(=O)N[C@@](C)(Cc1ccccc1)C(=O)N[C@H](C(=O)N[C@H](C(=O)N[C@@](C)(CCCCN)C(=O)NCC(=O)NCC(N)=O)C(C)C)C(C)C)[C@@H](C)CC)C(=O)O [compound 80] | ≥ 28 | ≥ 28 | 31 | 2610 | 3890 | 1330 | ≥ 28 | ≥ 28 | 17 | 24
6 | CCCCCCCCCCCCCCCC(=O)N[C@@H](CCC(=O)NCCCC[C@H](NC(=O)[C@H](CCC(=O)O)NC(=O)CNC(=O)[C@H](CCC(=O)O)NC(=O)[C@H](CC(C)C)NC(=O)[C@](C)(Cc1ccccc1)NC(=O)[C@H](CO)NC(=O)[C@](C)(CO)NC(=O)[C@@H](NC(=O)[C@H](CC(=O)O)NC(=O)[C@H](CO)NC(=O)[C@@H](NC(=O)[C@](C)(Cc1ccccc1)NC(=O)[C@H](CO)NC(=O)CNC(=O)[C@H](CCC(=O)O)NC(=O)C(C)(C)NC(=O)[C@@H](N)Cc1c[nH]cn1)[C@@H](C)O)C(C)C)C(=O)N[C@@H](C)C(=O)N[C@@](C)(CCCCN)C(=O)N[C@@H](CCC(=O)O)C(=O)N[C@@](C)(Cc1ccccc1)C(=O)N[C@H](C(=O)N[C@@H](C)C(=O)N[C@@](C)(Cc1ccccc1)C(=O)N[C@H](C(=O)N[C@H](C(=O)N[C@@](C)(CCCCN)C(=O)NCC(=O)NCC(N)=O)C(C)C)C(C)C)[C@@H](C)CC)C(=O)O [compound 82] (H-H[Aib]EGS[αMeF]TSDV[αMeS]S[αMeF]LEGEK([γGlu-Palmitoyl])A[αMeK]E[αMeF]IA[αMeF]VV[αMeK]GG-NH2; N-terminus assumed) | ≥ 27 | ≥ 27 | 3 | 195 | 151 | 238 | ≥ 27 | ≥ 27 | 2 | 2.5
